Read-outs that look alike come from different tables or passages of the source.
How the values were obtained:
HCV replicon = HCV replicon FRET assay; type: cell-based; details: Hepatitis C virus
Text: FRET Assay Preparation. To perform the HCV FRET screening assay, 96-well cell culture plates were used. The FRET peptide (Anaspec, Inc.) (Taliani et al., Anal. Biochem. 1996, 240, 60-67) contains a fluorescence donor, EDANS, near one end of the peptide and an acceptor, DABCYL, near the other end. The fluorescence of the peptide is quenched by […] resonance energy transfer (RET) between the donor and the acceptor, but as the NS3 protease cleaves the peptide the products are released from RET quenching and the fluorescence of the donor becomes apparent. The assay reagent was made as follows: 5× cell Luciferase cell culture lysis reagent from Promega (#E153A) diluted to 1× with dH2O, NaCl added to 150 mM final, the FRET peptide diluted to 20 uM final from a 2 mM stock.
To prepare plates, HCV replicon cells, with or without a Renilla luciferase reporter gene, were trypsinized and placed into each well of a 96-well plate with titrated test compounds added in columns 3 through 12; columns 1 and 2 contained a control compound (HCV protease inhibitor), and the bottom row contained cells without compound. The plates were then placed in a CO2 incubator at 37° C.
Assays. Subsequent to addition of the test compounds described above (FRET Assay Preparation), at various times the plate was removed and Alamar blue solution (Trek Diagnostics, #00-100) was added per well as a measure of cellular toxicity. After reading in a Cytoflour 4000 instrument (PE Biosystems), plates were rinsed with PBS and then used for FRET assay by the addition of 30 ul of the FRET peptide assay reagent described above (FRET Assay Preparation) per well. The plate was then placed into the Cytoflour 4000 instrument which had been set to 340 excite/490 emission, automatic mode for 20 cycles and the plate read in a kinetic mode. Typically, the signal to noise using an endpoint analysis after the reads was at least three-fold. Alternatively, after Alamar blue reading, plates were rinsed with PBS, 50 ul of DMEM (high glucose) without phenol red was added and plates were then used for luciferase assay using the Promega Dual-Glo Luciferase Assay System.
Compound analysis was determined by quantification of the relative HCV replicon inhibition and the relative cytotoxicity values. To calculate cytoxicity values, the average Alamar Blue fluorescence signals from the control wells were set as 100% non-toxic. The individual signals in each of the compound test wells were then divided by the average control signal and multiplied by 100% to determine […]. To calculate the HCV replicon inhibition values, an average background value was obtained from the two wells containing the highest amount of HCV protease inhibitor at the end of the assay period. These numbers were similar to those obtained from naïve Huh-7 cells.
The background numbers were then subtracted from the average signal obtained from the control wells and this number was used as 100% activity. The individual signals in each of the compound test wells were then divided by the averaged control values after background subtraction and multiplied by 100% to determine percent activity. EC50 values for a protease inhibitor titration were calculated as the concentration which caused a 50% reduction in FRET or luciferase activity. The two numbers generated for the compound plate, percent cytoxicity and percent activity were used to determine compounds of interest for further analysis.

HCV NS5B = molecular target: T1, HCV NS5B (Hepatitis C virus genotype 1b, UniProt Q9WMX2); assay: HCV NS5B RdRp enzyme assay (preincubation protocol); type: biochemical
T1 construct: The protein was expressed with an 18 amino acid C-terminal truncation to enhance the solubility; made in house; host or cells: E. coli BL21 (DE3), pET21a
In short: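 Preincubation format: enzyme (14 nM, genotype 1b, 18-residue C-terminal truncation) meets diluted compound first; reaction started with bead-bound biotinylated dT12 primer, polyA template 0.2 nM and 0.29 μM 3H-UTP. Run 4 h, 30 °C in Hepes pH 7.5; scintillation proximity signal; IC50 fitted from seven inhibitor levels.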

[1] = Table 1, FRET assay, read-out: EC50*

T1 sequence (Q9WMX2 2420-2992): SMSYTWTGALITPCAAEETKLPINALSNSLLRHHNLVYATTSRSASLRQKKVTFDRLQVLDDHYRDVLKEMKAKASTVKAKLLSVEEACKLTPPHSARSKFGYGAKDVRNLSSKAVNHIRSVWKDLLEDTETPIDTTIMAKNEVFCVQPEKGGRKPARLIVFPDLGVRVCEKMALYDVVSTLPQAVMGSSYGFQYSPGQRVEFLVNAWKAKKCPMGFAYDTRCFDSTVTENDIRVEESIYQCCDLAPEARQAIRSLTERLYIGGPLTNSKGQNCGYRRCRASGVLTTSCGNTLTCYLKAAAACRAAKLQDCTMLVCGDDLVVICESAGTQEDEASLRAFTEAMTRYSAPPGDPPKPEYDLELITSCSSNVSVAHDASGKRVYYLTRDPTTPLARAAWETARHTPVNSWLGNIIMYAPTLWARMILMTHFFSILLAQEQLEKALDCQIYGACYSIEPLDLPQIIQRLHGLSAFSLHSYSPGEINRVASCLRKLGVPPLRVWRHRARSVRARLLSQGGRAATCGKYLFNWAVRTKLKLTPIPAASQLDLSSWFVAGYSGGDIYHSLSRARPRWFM

| Compound | EC50 (HCV replicon; [1]) [µM] | IC50 (HCV NS5B; Table 1, read-out: IC50*) [µM] | EC50 (HCV replicon) [µM] | IC50 (HCV NS5B; IC50*, Table 1) [µM] |
| --- | --- | --- | --- | --- |
| CN(C)S(=O)(=O)NC(=O)c1ccc2c(C3CCCCC3)c3n(c2c1)CC(C(=O)N1CCN(C(=O)c2ccccc2)CC1)=Cc1ccccc1-3 | 0.07 to 1 | 0.01 to 1 |  |  |
| C[C@@H]1CN(C(=O)c2ccccc2)CCN1C(=O)C1=Cc2ccccc2-c2c(C3CCCCC3)c3ccc(C(=O)NS(=O)(=O)N(C)C)cc3n2C1 | 0.07 to 1 | 0.01 to 1 |  |  |
| O=C(O)C1=Cc2ccccc2-c2c(C3CCCCC3)c3ccc(C(=O)NS(=O)(=O)N4CCOCC4)cc3n2C1 | > 10 | 0.01 to 1 |  |  |
| COc1ccc(S(=O)(=O)NC(=O)c2ccc3c(C4CCCCC4)c4n(c3c2)CC(C(=O)N2CCOCC2)=Cc2ccccc2-4)cc1 | 0.07 to 1 | 0.01 to 1 |  |  |
| O=C(NS(=O)(=O)N1CCOCC1)c1ccc2c(C3CCCCC3)c3n(c2c1)CC(C(=O)N1CCN(C(=O)CO)CC1)=Cc1ccccc1-3 | 0.07 to 1 | 0.01 to 1 |  |  |
| COc1ccc2c(c1)C=C(C(=O)N1CCOCC1)Cn1c-2c(C2CCCCC2)c2ccc(C(=O)NS(=O)(=O)N3CCN(C)CC3)cc21 | 0.07 to 1 | 0.01 to 1 |  |  |
| C[C@@H]1CN(C(=O)C2=Cc3ccccc3-c3c(C4CCCCC4)c4ccc(C(=O)NS(=O)(=O)N5CCN(C)CC5)cc4n3C2)C[C@H](C)O1 | 0.07 to 1 | 0.01 to 1 |  |  |
| O=C(NCc1cnn[nH]1)c1ccc2c(C3CCCCC3)c3n(c2c1)CC(C(=O)N1CCOCC1)=Cc1ccccc1-3 | 0.07 to 1 | 0.01 to 1 |  |  |
| C[C@@H]1CN(C(=O)C2=Cc3ccccc3-c3c(C4CCCCC4)c4ccc(C(=O)NCCN5CCOCC5)cc4n3C2)C[C@H](C)O1 | 1 to 10 | 0.01 to 1 |  |  |
| C[C@@H]1CN(C(=O)C2=Cc3ccccc3-c3c(C4CCCCC4)c4ccc(C(=O)NCCN(C)C)cc4n3C2)C[C@H](C)O1 | 1 to 10 | 0.01 to 1 |  |  |
| Cn1ncc(CNC(=O)c2ccc3c(C4CCCCC4)c4n(c3c2)CC(C(=O)N2CCOCC2)=Cc2ccccc2-4)n1 | 1 to 10 | 0.01 to 1 |  |  |
| O=C(O)c1ccc2c(C3CCCCC3)c3n(c2c1)CC(C(=O)Nn1cnnc1)Cc1ccccc1-3 (stereo not shown) | > 10 | 0.01 to 1 |  |  |
| COC(=O)c1ccc2c(C3CCCCC3)c3n(c2c1)CC(C(=O)N(C)CC1CCCN(C)C1)Cc1ccccc1-3 (stereo not shown) | 0.07 to 1 | 0.01 to 1 |  |  |
| CN1CCCC(CN(C)C(=O)C2Cc3ccccc3-c3c(C4CCCCC4)c4ccc(C(=O)O)cc4n3C2)C1 (stereo not shown) | 0.07 to 1 | 0.01 to 1 |  |  |
| CN1CCCC(CN(C)C(=O)C2Cc3ccccc3-c3c(C4CCCCC4)c4ccc(C(=O)NS(=O)(=O)N(C)C)cc4n3C2)C1 (stereo not shown) | < 0.02 | 0.01 to 1 |  |  |
| COC(=O)c1ccc2c(C3CCCCC3)c3n(c2c1)CC(C(=O)N(C)CC1CCCN(C)C1)=Cc1ccccc1-3 (stereo not shown) | 1 to 10 | 0.01 to 1 |  |  |
| CN1CCCC(CN(C)C(=O)C2=Cc3ccccc3-c3c(C4CCCCC4)c4ccc(C(=O)N(C)CC5CCCN(C)C5)cc4n3C2)C1 (stereo not shown) | 1 to 10 | 0.01 to 1 |  |  |
| CN1CCCC(CN(C)C(=O)C2=Cc3ccccc3-c3c(C4CCCCC4)c4ccc(C(=O)O)cc4n3C2)C1 (stereo not shown) | 0.07 to 1 | 0.01 to 1 |  |  |
| CN1CCCC(CN(C)C(=O)C2=Cc3ccccc3-c3c(C4CCCCC4)c4ccc(C(=O)NS(=O)(=O)N(C)C)cc4n3C2)C1 (stereo not shown) | 0.07 to 1 | 0.01 to 1 |  |  |
| COC(=O)c1ccc2c(C3CCCCC3)c3n(c2c1)CC(C(=O)Nc1nccs1)=Cc1ccccc1-3 | 1 to 10 |  |  |  |
| O=C(Nc1nccs1)C1=Cc2ccccc2-c2c(C3CCCCC3)c3ccc(C(=O)O)cc3n2C1 | 1 to 10 | 0.01 to 1 |  |  |

| Compound | EC50 (HCV replicon; [1]) [µM] | IC50 (HCV NS5B; Table 1, read-out: IC50*) [µM] | EC50 (HCV replicon) [µM] | IC50 (HCV NS5B; IC50*, Table 1) [µM] |
| --- | --- | --- | --- | --- |
| O=C(O)c1ccc2c(C3CCCCC3)c3n(c2c1)CC(C(=O)N1C2CCC1CC2)=Cc1ccccc1-3 |  | 0.01 to 1 | 0.07 to 1 |  |
| CN(C)S(=O)(=O)NC(=O)c1ccc2c(C3CCCCC3)c3n(c2c1)CC(C(=O)N1C2CCC1CC2)=Cc1ccccc1-3 |  | 0.01 to 1 | 0.07 to 1 |  |
| COC(=O)c1ccc2c(C3CCCCC3)c3n(c2c1)CC(C(=O)N1CC2(CCN(C)CC2)C1)=Cc1ccccc1-3 | 1 to 10 | > 1 |  |  |
| CN1CCC2(CC1)CN(C(=O)C1=Cc3ccccc3-c3c(C4CCCCC4)c4ccc(C(=O)O)cc4n3C1)C2 | 0.07 to 1 | 0.01 to 1 |  |  |
| CN(C)S(=O)(=O)NC(=O)c1ccc2c(C3CCCCC3)c3n(c2c1)CC(C(=O)Nc1nccs1)=Cc1ccccc1-3 | 0.07 to 1 | 0.01 to 1 |  |  |
| CN(C)S(=O)(=O)NC(=O)c1ccc2c(C3CCCCC3)c3n(c2c1)CC(C(=O)N1C[C@@H]2C[C@H]1CN2C(=O)OC(C)(C)C)=Cc1ccccc1-3 | 0.07 to 1 | 0.01 to 1 |  |  |
| CN(C)S(=O)(=O)NC(=O)c1ccc2c(C3CCCCC3)c3n(c2c1)CC(C(=O)N1C[C@@H]2C[C@H]1CO2)=Cc1ccccc1-3 | 0.07 to 1 | 0.01 to 1 |  |  |
| CCN(C(C)=O)C1CCN(C(=O)C2=Cc3ccccc3-c3c(C4CCCCC4)c4ccc(C(=O)NS(=O)(=O)N(C)C)cc4n3C2)C1 (stereo not shown) | 0.07 to 1 | 0.01 to 1 |  |  |
| CN(CCC1OCCO1)C(=O)C1=Cc2ccccc2-c2c(C3CCCCC3)c3ccc(C(=O)NS(=O)(=O)N(C)C)cc3n2C1 | 0.07 to 1 | 0.01 to 1 |  |  |
| COC[C@H]1CCCN1C(=O)C1=Cc2ccccc2-c2c(C3CCCCC3)c3ccc(C(=O)NS(=O)(=O)N(C)C)cc3n2C1 | 0.07 to 1 | 0.01 to 1 |  |  |
| COCCN(CCOC)C(=O)C1=Cc2ccccc2-c2c(C3CCCCC3)c3ccc(C(=O)NS(=O)(=O)N(C)C)cc3n2C1 | 0.07 to 1 | 0.01 to 1 |  |  |
| COCCN(C)C(=O)C1=Cc2ccccc2-c2c(C3CCCCC3)c3ccc(C(=O)NS(=O)(=O)N(C)C)cc3n2C1 | 0.07 to 1 | 0.01 to 1 |  |  |
| COC(=O)c1ccc2c(C3CCCCC3)c3n(c2c1)CC(C(=O)N1CCC(N2C(=O)Cc4ccccc42)CC1)=Cc1ccccc1-3 | 1 to 10 |  |  |  |
| COC(=O)c1ccc2c(C3CCCCC3)c3n(c2c1)CC(C(=O)N1CCC(NC(C)=O)CC1)=Cc1ccccc1-3 | 1 to 10 |  |  |  |
| O=C(O)c1ccc2c(C3CCCCC3)c3n(c2c1)CC(C(=O)N1CCC2(CC1)OCCO2)=Cc1ccccc1-3 |  |  | 0.07 to 1 | 0.01 to 1 |
| CN(C)S(=O)(=O)NC(=O)c1ccc2c(C3CCCCC3)c3n(c2c1)CC(C(=O)N1CCC2(CC1)OCCO2)=Cc1ccccc1-3 |  |  | 0.07 to 1 | 0.01 to 1 |
| COC(=O)c1ccc2c(C3CCCCC3)c3n(c2c1)CC(C(=O)N1CCC(N2CCOCC2)CC1)=Cc1ccc(Cl)cc1-3 | 1 to 10 |  |  |  |
| CN(C)S(=O)(=O)NC(=O)c1ccc2c(C3CCCCC3)c3n(c2c1)CC(C(=O)N1CCC(=O)CC1)=Cc1ccccc1-3 |  |  | 0.07 to 1 | 0.01 to 1 |
| COC(=O)c1ccc2c(C3CCCCC3)c3n(c2c1)CC(C(=O)N1CC[C@@H](F)C1)=Cc1ccccc1-3 | > 0.37 |  |  |  |
| COC(=O)c1ccc2c(C3CCCCC3)c3n(c2c1)C/C(=N/O)Cc1ccccc1-3 | > 10 |  |  |  |
